Assay results as given in ChEMBL document CHEMBL1144960, “Studies on the synthesis and anti-Osteoporosis of estrogen-GHRPs linkers” (2003).

How the values were obtained:
Assay type in all cases: functional
Rattus norvegicus [1] = experiment: Weight of rat femur tested after intramuscular administration of 18 ug/kg of compound when compared to vehicle
Rattus norvegicus [2] = experiment: Weight of rat femur ash tested after intramuscular administration of 18 ug/kg of compound when compared to vehicle
Rattus norvegicus [3] = experiment: Activity tested for the content of calcium in serum of rat when 18 ug/kg of compound was administered intramuscularly when compared to vehicle
Rattus norvegicus [4] = experiment: Weight of rat body tested after intramuscular administration of 18 ug/kg of compound when compared to vehicle
Rattus norvegicus [5] = species: Rattus norvegicus; experiment: Percentage content of phosphor in femur tested in the compound using male ICR rats
Rattus norvegicus [6] = species: Rattus norvegicus; experiment: Percentage content of calcium in femur tested in the compound using male ICR rats when compared to vehicle
Rattus norvegicus [7] = experiment: Activity of alkaline phosphatase (ALP) tested in serum of rat when 18 ug/kg of compound was administered intramuscularly
Rattus norvegicus [8] = experiment: Weight of rat body tested after intramuscular administration of 18 ug/kg of compound when compared to prednisone
Rattus norvegicus [9] = experiment: Activity tested for the content of calcium in serum of rat when 18 ug/kg of compound was administered intramuscularly when compared to prednisone

Structure (SMILES) | Weight (Rattus norvegicus [1]) [mg] | Weight (Rattus norvegicus [2]) [mg] | Ca2+ (Rattus norvegicus [3]) [mM] | Weight (Rattus norvegicus [4]) [g] | Phosphor (Rattus norvegicus [5]) [%] | Ca2+ (Rattus norvegicus [6]) [%] | Activity (Rattus norvegicus [7]) | Weight (Rattus norvegicus [8]) [g] | Ca2+ (Rattus norvegicus [9]) [mM]
C[C@]12CC[C@@H]3c4ccc(O)cc4CCC3[C@@H]1CCC2=O (single isomer, unassigned) [ESTRONE] | 33.93 | 21.69 | 2.28 | 33.62 | 22.02 | 40.83 | 45.84 |  | 
C[C@]12CC[C@@H]3c4ccc(O)cc4CC[C@H]3[C@@H]1CCC2O (single isomer, unassigned) [ESTRADIOL] | 35.09 | 22.82 |  |  | 21.85 | 42.11 | 44.1 | 35.39 | 2.13
CC(C)C[C@H](NC(=O)[C@H](Cc1ccccc1)NC(=O)CNC(=O)CNC(=O)[C@H](Cc1ccc(O)cc1)NC(=O)CCC(=O)O[C@H]1CC[C@H]2[C@@H]3CCc4cc(O)ccc4[C@H]3CC[C@]12C)C(N)=O |  |  |  |  |  |  |  |  | 1.92
CC(C)C[C@H](NC(=O)[C@H](Cc1ccccc1)NC(=O)CNC(=O)CNC(=O)[C@@H](N)Cc1ccc(O)cc1)C(N)=O [[LEU5]ENKEPHALIN] |  | 22.8 |  | 34.16 | 22.35 |  | 34.22 |  | 2.01
C[C@]12C=CC(=O)C=C1CC[C@@H]1[C@@H]2C(=O)C[C@@]2(C)[C@H]1CC[C@]2(O)C(=O)CO [PREDNISONE] | 33.39 | 21.26 | 2.42 | 31.89 | 20.87 | 39.54 | 48.7 |  | 
CC(C)C[C@H](NC(=O)[C@H](Cc1ccccc1)NC(=O)CNC(=O)CNC(=O)[C@@H](N)Cc1ccc(O)cc1)C(=O)O [ENKEPHALIN] |  | 21.74 |  | 33.29 | 22.27 |  | 37.7 |  | 
